Data taken from PMC3323550, “Functional Characterization of EngA^MS, a P-Loop GTPase of Mycobacterium smegmatis” (PLoS ONE, 2012).
Each block holds one molecule with its values, some of them ahead of it.

Legend:
[1] = target: T1, EngA^MS (MSMEG_3738) (Mycolicibacterium smegmatis, UniProt A0QYP9, D331N); assay: fluorescent mant-nucleotide binding assay, single concentration; settings: 4 µM protein, 1 µM mant-GDP, 40 mM Tris-Cl pH 8.0, 2 mM MgCl2, 40% glycerol, room temperature; labelled compound
T1 construct: gene der
T1 sequence (A0QYP9 entry or part of it D331N): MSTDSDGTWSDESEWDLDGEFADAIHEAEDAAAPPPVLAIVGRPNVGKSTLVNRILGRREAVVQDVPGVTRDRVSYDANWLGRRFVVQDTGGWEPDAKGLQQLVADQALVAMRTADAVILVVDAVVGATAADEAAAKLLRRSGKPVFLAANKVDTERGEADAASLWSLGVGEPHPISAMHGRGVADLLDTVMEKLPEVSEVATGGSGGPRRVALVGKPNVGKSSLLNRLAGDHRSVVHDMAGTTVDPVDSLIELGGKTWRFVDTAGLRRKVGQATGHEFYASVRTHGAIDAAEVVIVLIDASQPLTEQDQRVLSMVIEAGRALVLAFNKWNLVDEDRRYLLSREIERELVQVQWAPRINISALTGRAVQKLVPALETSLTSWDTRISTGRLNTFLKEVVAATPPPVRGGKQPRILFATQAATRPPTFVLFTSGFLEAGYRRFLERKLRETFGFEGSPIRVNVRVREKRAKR

[2] = target: T2, EngA^MS (MSMEG_3738) (Mycolicibacterium smegmatis, UniProt A0QYP9, D154N); assay: as above; settings: 4 µM protein, 1 µM mant-GDP, 40 mM Tris-Cl pH 8.0, 2 mM MgCl2, 40% glycerol, room temperature; labelled compound
T2 construct: gene der
T2 sequence (A0QYP9 entry or part of it D154N): as the sequence (A0QYP9 entry or part of it D331N) above, with D154N, N331D counted along it

[3] = target: T3, EngA^MS (MSMEG_3738) (Mycolicibacterium smegmatis, UniProt A0QYP9); assay: colorimetric Pi release GTPase assay; format: biochemical
T3 construct: gene der
T3 sequence (A0QYP9 1-471): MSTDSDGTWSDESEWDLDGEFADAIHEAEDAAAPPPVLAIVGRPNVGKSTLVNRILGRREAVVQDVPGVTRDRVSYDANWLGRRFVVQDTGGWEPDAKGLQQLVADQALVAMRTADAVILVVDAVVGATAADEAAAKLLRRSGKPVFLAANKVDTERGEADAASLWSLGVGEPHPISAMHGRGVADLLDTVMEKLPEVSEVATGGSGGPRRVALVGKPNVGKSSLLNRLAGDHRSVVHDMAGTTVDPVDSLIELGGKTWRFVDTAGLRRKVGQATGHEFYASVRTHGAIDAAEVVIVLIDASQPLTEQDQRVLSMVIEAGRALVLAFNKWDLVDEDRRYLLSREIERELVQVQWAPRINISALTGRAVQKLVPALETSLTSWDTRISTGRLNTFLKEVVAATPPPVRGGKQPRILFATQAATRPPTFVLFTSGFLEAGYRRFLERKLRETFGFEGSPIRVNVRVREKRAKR

[4] = substrate: Nc1nc2c(ncn2[C@@H]2O[C@H](COP(=O)(O)OP(=O)(O)OP(=O)(O)O)[C@@H](O)[C@H]2O)c(=O)[nH]1; assay: colorimetric Pi release GTPase assay; format: biochemical, Mycolicibacterium smegmatis; settings: 40 mM Tris-Cl pH 8.0, 2 mM MgCl2, 40% glycerol, 1 h, no GDP

% reduction in binding affinity vs wild-type [1]: ~ 50% | % reduction in binding affinity vs wild-type [2]: ~ 50%
Molecule: CNc1ccccc1C(=O)O[C@H]1[C@@H](O)[C@H](n2cnc3c(=O)[nH]c(N)nc32)O[C@@H]1COP(=O)(O)OP(=O)(O)O [mant-GDP]

inhibition at 200 µM [3]: 40%
Molecule: Nc1nc2c(ncn2[C@@H]2O[C@H](COP(=O)(O)OP(=O)(O)O)[C@@H](O)[C@H]2O)c(=O)[nH]1 [GDP]

B1: EngA^MS (MSMEG_3738) (Mycolicibacterium smegmatis MC2 155) (protein)
chain: MSTDSDGTWSDESEWDLDGEFADAIHEAEDAAAPPPVLAIVGRPNVGKSTLVNRILGRREAVVQDVPGVTRDRVSYDANWLGRRFVVQDTGGWEPDAKGLQQLVADQALVAMRTADAVILVVDAVVGATAADEAAAKLLRRSGKPVFLAANKVDTERGEADAASLWSLGVGEPHPISAMHGRGVADLLDTVMEKLPEVSEVATGGSGGPRRVALVGKPNVGKSSLLNRLAGDHRSVVHDMAGTTVDPVDSLIELGGKTWRFVDTAGLRRKVGQATGHEFYASVRTHGAIDAAEVVIVLIDASQPLTEQDQRVLSMVIEAGRALVLAFNKWDLVDEDRRYLLSREIERELVQVQWAPRINISALTGRAVQKLVPALETSLTSWDTRISTGRLNTFLKEVVAATPPPVRGGKQPRILFATQAATRPPTFVLFTSGFLEAGYRRFLERKLRETFGFEGSPIRVNVRVREKRAKR
Km [4]: 39 µM | kcat [4]: 8.3e-05 s⁻¹
